Assay results reported in ChEMBL document CHEMBL5096178, “Synthesis and Biological Evaluation of Natural-Product-Inspired, Aminoalkyl-Substituted 1-Benzopyrans as Novel Antiplasmodial Agents” (J Med Chem, 2021).
Values after ≈ are worked out from the molar mass of the structure shown.

Legend:
Plasmodium falciparum [1] = experiment: Antimalarial activity against chloroquine-sensitive Plasmodium falciparum D6 assessed as parasite growth inhibition by [3H]hypoxanthine growth inhibition assay; type: functional, organism-based
Plasmodium falciparum [2] = experiment: Inhibition of Plasmodium falciparum DHODH using DCIP as substrate at 10 uM relative to control
Plasmodium falciparum [3] = experiment: Antiprotozoal activity against Chloroquine-resistant Plasmodium falciparum K1 assessed as parasite growth inhibition; type: functional, organism-based
Plasmodium falciparum [4] = experiment: Inhibition of Plasmodium falciparum DHODH using DCIP as substrate at 50 uM relative to control
Plasmodium falciparum [5] = experiment: Inhibition of Plasmodium falciparum DHODH assessed as residual activity using DCIP as substrate at 10 uM relative to control
Plasmodium falciparum [6] = experiment: Inhibition of Plasmodium falciparum DHODH assessed as residual activity using DCIP as substrate at 50 uM relative to control
Plasmodium falciparum [7] = experiment: Antiprotozoal activity against erythrocytic stage Plasmodium falciparum NF54 assessed as parasite growth inhibition incubated for 48 hrs by [3H]hypoxanthine incorporation assay; type: functional, organism-based
[8] = test system: Trypanosoma brucei rhodesiense; experiment: Antiprotozoal activity against Trypanosoma brucei rhodesiense STIB 900 bloodstream trypomastigote assessed as parasite growth inhibition incubated for 70 hrs by resazurin dye based assay; type: functional, organism-based; details: STIB 900, 70 h
Trypanosoma cruzi = experiment: Antiprotozoal activity against Trypanosoma cruzi Tulahuen C4 intracellular amastigote infected in rat L6 cells assessed as parasite growth inhibition incubated for 96 hrs in presence of CPRG/Nonidet by photometry; type: functional, organism-based; details: Tulahuen C4, L6, 96 h
Leishmania donovani [9] = experiment: Antiprotozoal activity against Leishmania donovani MHOM/ET/67/L82 axenic amastigote assessed as parasite growth inhibition incubated for resazurin dye based fluorometry; type: functional, organism-based
[10] = Cytotoxicity against rat L6 cells assessed as cell growth inhibition incubated for 70 hrs by Alamar Blue staining based […]; type: toxicity
[11] = Selectivity index, ratio of IC50 for rat L6 cells to IC50 for erythrocytic stage Plasmodium falciparum NF54; type: toxicity; details: read-out: Ratio IC50
[12] = Selectivity index, ratio of IC50 for rat L6 cells to IC50 for Trypanosoma brucei rhodesiense STIB 900 bloodstream trypomastigote; type: toxicity; details: read-out: Ratio IC50
[13] = Selectivity index, ratio of IC50 for rat L6 cells to IC50 for Trypanosoma cruzi Tulahuen C4 intracellular amastigote infected in rat L6 cells; type: toxicity, cell-based; details: read-out: Ratio IC50
[14] = Selectivity index, ratio of IC50 for rat L6 cells to IC50 for Leishmania donovani MHOM/ET/67/L82 axenic amastigote; type: toxicity; details: read-out: Ratio IC50
[15] = Displacement of [3H]-(+)-pentazocine from Sigma1 receptor derived from pig brain assessed as inhibition constant measured after 120 mins by scintillation counter analysis; type: tissue-based, Sus scrofa
Plasmodium falciparum [16] = experiment: Potency index, ratio of Chloroquine IC50 to test compound IC50 for Chloroquine-resistant Plasmodium falciparum K1 assessed as parasite growth inhibition; type: functional
Plasmodium berghei [17] = experiment: Antiplasmodial activity against GFP-transfected Plasmodium berghei ANKA infected in NMRI mouse assessed as parasitemia reduction at 30 mg/kg, ip administered for 4 consecutive days measured after 24 hrs by FACS analysis relative to control; type: functional; set-up: scale not given: the % may be the effect or the level left
Plasmodium berghei [18] = experiment: Antiplasmodial activity against GFP-transfected Plasmodium berghei ANKA infected in NMRI mouse assessed as parasitemia reduction at 60 mg/kg, po administered for 4 consecutive days measured after 24 hrs by FACS analysis relative to control; type: functional; set-up: scale not given: the % may be the effect or the level left
[19] = Drug metabolism in mouse liver microsomes assessed as 2,2-dimethyl-6-((3-phenylpropylamino)methyl)chroman-7-ol metabolite formation incubated for 90 mins in presence of NADPH/UDPGA by LC-MS analysis; type: ADME, Microsome; details: 1.5 h
[20] = Drug metabolism in mouse liver microsomes assessed as glucuronic acid conjugated metabolite formation incubated for 90 mins in presence of NADPH/UDPGA by LC-MS analysis; type: ADME, Microsome; details: 1.5 h
[21] = Drug metabolism in mouse liver microsomes assessed as (2R,3R,4S,5S,6R)-2-(2,2-dimethyl-6-((3-phenylpropylamino)methyl)chroman-7-ylperoxy)-6-(hydroxymethyl)tetrahydro-2H-pyran-3,4,5-triol metabolite formation incubated for 90 mins in presence of NADPH/UDPGA by LC-MS analysis; type: ADME, Microsome; details: 1.5 h
[22] = Drug concentration in plasma of NMRI mouse infected with GFP-transfected Plasmodium berghei ANKA administered intraperitoneally for 4 consecutive days measured after 1 hr by LC-MS analysis; type: ADME; details: ip, 97 h
[23] = Drug concentration in plasma of NMRI mouse infected with GFP-transfected Plasmodium berghei ANKA administered orally for 4 consecutive days measured after 1 hr by LC-MS analysis; type: ADME; details: po, 97 h
[24] = Drug metabolism in NMRI mouse infected with GFP-transfected Plasmodium berghei ANKA assessed as 2,2-dimethyl-6-((3-phenylpropylamino)methyl)chroman-7-ol metabolite formation administered intraperitoneally for 4 consecutive days measured after 1 hr by LC-MS analysis; type: ADME; details: in vivo, ip, 97 h
[25] = Drug metabolism in NMRI mouse infected with GFP-transfected Plasmodium berghei ANKA assessed as glucuronic acid conjugated metabolite formation administered intraperitoneally for 4 consecutive days measured after 1 hr by LC-MS analysis; type: ADME; details: in vivo, ip, 97 h
[26] = (§1) Drug metabolism in NMRI mouse infected with GFP-transfected Plasmodium berghei ANKA assessed as (2R,3R,4S,5S,6R)-2-(2,2-dimethyl-6-((3-phenylpropylamino)methyl)chroman-7-ylperoxy)-6-(hydroxymethyl)tetrahydro-2H-pyran-3,4,5-triol metabolite formation administered intraperitoneally for 4 consecutive days measured after 1 hr by LC-MS analysis; type: ADME; details: in vivo, ip, 97 h
[27] = Drug metabolism in NMRI mouse infected with GFP-transfected Plasmodium berghei ANKA assessed as 2,2-dimethyl-6-((3-phenylpropylamino)methyl)chroman-7-ol metabolite formation administered orally for 4 consecutive days measured after 1 hr by LC-MS analysis; type: ADME; details: in vivo, po, 97 h
[28] = Drug metabolism in NMRI mouse infected with GFP-transfected Plasmodium berghei ANKA assessed as glucuronic acid conjugated metabolite formation administered orally for 4 consecutive days measured after 1 hr by LC-MS analysis; type: ADME; details: in vivo, po, 97 h
[29] = as §1, with “orally” for “intraperitoneally”; type: ADME; details: in vivo, po, 97 h
[30] = Displacement of [14C]lactate from Plasmodium falciparum FNT expressed in Saccharomyces cerevisiae incubated for 24 hrs by liquid scintillation counter method
Plasmodium falciparum [31] = experiment: Antiplasmodial activity against Plasmodium falciparum 3D7 assessed as parasite growth inhibition incubated for 24 hrs by FACS analysis; type: functional, organism-based
Leishmania donovani [32] = experiment: Antiprotozoal activity against Leishmania donovani MHOM-ET-67/L82 axenic amastigotes assessed as parasite growth inhibition incubated for 70 hrs by resazurin dye based inverted microscopy; details: MHOM-ET-67/L82, 70 h
Plasmodium falciparum [33] = experiment: Antimalarial activity against drug-sensitive Plasmodium falciparum 3D7 assessed as parasite growth inhibition incubated for 48 hrs by [3H]hypoxanthine incorporation assay; type: functional, organism-based

| IC50 [8] [nM] | IC50 (Trypanosoma cruzi) [nM] | SMILES | IC50 (Plasmodium falciparum [7]) [nM] | IC50 (Leishmania donovani [9]) [nM] | IC50 at 70 h [10] [nM] | selectivity ratio [11] | selectivity ratio [12] | selectivity ratio [13] | selectivity ratio [14] | also measured |
| --- | --- | --- | --- | --- | --- | --- | --- | --- | --- | --- |
| – | – | CCCCNCc1cc(C(C)(C)C)cc(-c2cnc(C(F)(F)F)c(F)c2)c1O | – | – | – | – | – | – | – | IC50 (Plasmodium falciparum [1]): 9 nM |
| – | – | C[C@@H](NCc1ccccc1)c1cc2c(cc1O)OC(C)(C)C=C2 | – | – | – | – | – | – | – | inhibition (Plasmodium falciparum [2]): 3%; IC50 (Plasmodium falciparum [3]): 20 nM; inhibition (Plasmodium falciparum [4]): 1%; Activity (Plasmodium falciparum [5]): 110%; Activity (Plasmodium falciparum [6]): 91% |
| 4600 | 15000 | CC1(C)CCc2cc(CCCNCc3ccccc3)c(O)cc2O1 | 980 | 15000 | 24000 | 24 | 5 | 2 | 2 | Ki [15]: 4.8 nM |
| – | – | CC(NCCCc1ccccc1)c1cc2c(cc1O)OC(C)(C)C=C2 (racemic) | – | – | – | – | – | – | – | inhibition (Plasmodium falciparum [2]): 3%; IC50 (Plasmodium falciparum [3]): 886 nM; Ratio IC50 (Plasmodium falciparum [16]): 13; inhibition (Plasmodium falciparum [4]): 4%; Activity (Plasmodium falciparum [5]): 116%; Activity (Plasmodium falciparum [6]): 98% |
| – | – | C[C@H](NCc1ccccc1)c1cc2c(cc1O)OC(C)(C)C=C2 | – | – | – | – | – | – | – | inhibition (Plasmodium falciparum [2]): 5%; IC50 (Plasmodium falciparum [3]): 10 nM; inhibition (Plasmodium falciparum [4]): 1%; Activity (Plasmodium falciparum [5]): 116%; Activity (Plasmodium falciparum [6]): 96% |
| 410 | 15000 | CC1(C)CCc2cc(CNCCCc3ccccc3)c(O)cc2O1 | 38 | 134000 | 6500 | 171 | 14 | 0.4 | 0.05 | inhibition (Plasmodium falciparum [2]): 3%; inhibition (Plasmodium falciparum [4]): 1%; Ki [15]: 74 nM; Activity (Plasmodium berghei [17]): 66%; Activity (Plasmodium berghei [18]): 74%; Drug metabolism [19]: Metabolite_Detected; Drug metabolism [20]: Metabolite_Detected; Drug metabolism [21]: Metabolite_Detected; Drug uptake [22]: Active; Drug uptake [23]: Active; Drug metabolism [24]: Metabolite_Detected; Drug metabolism [25]: Metabolite_Detected; Drug metabolism [26]: Metabolite_Detected; Drug metabolism [27]: Metabolite_Detected; Drug metabolism [28]: Metabolite_Detected; Drug metabolism [29]: Metabolite_Detected; Activity (Plasmodium falciparum [5]): 106%; Activity (Plasmodium falciparum [6]): 90% |
| – | – | COc1ccc(C(=O)/C=C(\O)C(F)(F)C(F)(F)F)c(O)c1 | – | – | – | – | – | – | – | IC50 [30]: 170 nM; IC50 (Plasmodium falciparum [31]): 140 nM |
| – | – | CCCCCCCCCCCCCCCCOP(=O)([O-])OCC[N+](C)(C)C [MILTEFOSINE] | – | – | – | – | – | – | – | IC50 (Leishmania donovani [32]): 471 nM |
| – | – | COCOc1cc2c(cc1CCCNCc1ccccc1)CCC(C)(C)O2 | – | – | – | – | – | – | – | Ki [15]: 2.4 nM |
| – | – | CC(C)(C)c1cc(O)c(CN)c(C(C)(C)C)c1 | – | – | – | – | – | – | – | IC50 (Plasmodium falciparum [33]): 30 µg/mL (≈ 127 µM) |
| – | – | CC(NCc1ccccc1)c1cc2c(cc1O)OC(C)(C)C=C2 (racemic) | – | – | – | – | – | – | – | IC50 (Plasmodium falciparum [3]): 26 nM; Ratio IC50 (Plasmodium falciparum [16]): 26 |
| 460 | 13000 | CC1(C)CCc2cc(CNCCCCc3ccccc3)c(O)cc2O1 | 70 | 138000 | 15000 | 214 | 33 | 1 | 0.1 | – |
| 1010 | 28000 | CC1(C)C=Cc2cc(CNCCCc3ccccc3)c(O)cc2O1 | 81 | 43000 | 28000 | 346 | 28 | 1 | 0.7 | – |

| SMILES | IC50 [8] [nM] | IC50 (Trypanosoma cruzi) [nM] | IC50 (Plasmodium falciparum [7]) [nM] | IC50 (Leishmania donovani [9]) [nM] | IC50 at 70 h [10] [nM] | selectivity ratio [11] | selectivity ratio [12] | selectivity ratio [13] | selectivity ratio [14] | also measured |
| --- | --- | --- | --- | --- | --- | --- | --- | --- | --- | --- |
| CC1(C)C=Cc2cc(CNCCc3ccccc3)c(O)cc2O1 | 670 | 28000 | 76 | 105000 | 46000 | 605 | 69 | 2 | 0.4 | – |
